“Also recorded” adds a separate entry of the source.
Assays:
[1] = test system: fetal dopaminergic neurons (TH+) in culture; assay: dopaminergic neuron spontaneous degeneration model, second protocol (Mourlevat et al.), TH+ neuron count after 10 days; type: cell-based; conditions: Rattus norvegicus, 240 h, effect at 100 μM, 10 days of culture, read-out: TH+ neurons in % of control ± Std. Err.
Protocol: This second protocol is described in the article by Mourlevat, P. P. Michel et al. Molecular Pharmacology 2003, 64:578-586 (“Prevention of Dopaminergic Neuronal Death by Cyclic AMP in Mixed Neuronal/Glial Mesencephalic Cultures Requires the Repression of Presumptive Astrocytes”). […] Compounds according to the invention were evaluated at 50 μM except compound 4bc which was assessed at 100 μM.

[2] = test system: dopaminergic fibers in the striatum and dopaminergic neurons in the substantia nigra; assay: neuroprotection in mice lesioned by intranasal MPTP (animal model of Parkinson's disease), TH immunohistochemistry; type: in vivo; conditions: oral 150 mg/kg twice daily 2 days then 75 mg/kg once daily
Excerpt: The goal of this study is to test by an […] study the neuroprotective activity of compound 4bc administered orally to a mouse after it is poisoned by intranasal administration of MPTP. The food intake and weight of the animals were also compared to a control group. The densitometric analysis of striatal fibers and count of dopaminergic cell bodies in the substantia nigra, after immunohistochemical marking of tyrosine hydroxylase enabled quantifying the neuroprotective effect of the compound.
30 male C57BL\6J mice aged 3 months (supplier: Janvier Breeding Center) were used during this study.
Compound 4bc was administered orally at a dose of 150 mg/kg to 10 mL/kg, twice daily for two days, and then 75 mg/kg once daily. The carrier was composed of 0.5% Tween 80+99.5% carboxymethylcellulose (at 1% in water). A curved rigid tube connected to a 1 mL Terumo syringe was used for administration.
MPTP, a toxin specific for dopaminergic neurons was administered intranasally. One mg (10 μl) of MPTP/HCl (Sigma) dissolved in a 0.9% NaCl solution was delivered per nostril with a 3-minute interval between the two nostrils. […]
To quantify the neuroprotective capacity of compound 4bc, an immunohistochemistry study was done on floating brain slices. Two brain anatomic structures were analyzed: the striatum (20 μm slices, 10 levels) and the substantia nigra (20 μm slices, 7 levels). […]

[3] = influence of time before euthanasia, per os route: brain extract and plasma concentration; type: in vivo, C57BL\6J mice
Protocol: (§1) This study was done on C57BL\6J (instead of RjOrl:SWISS) mice treated with compound 4bc by IP or per os.
Mice treated per os received a treatment of 150 mg/kg to 10 mL/kg of a solution of compound 4bc over 5 days comprising twice daily administrations for 4 days and a once daily administration the last day.

[4] = test system: dopaminergic neurons (TH+) of rat embryo ventral midbrain culture; assay: neuritogenic activity: neurite outgrowth per cell / differentiation of TH+ neurons; type: cell-based
Protocol: Quinoxaline derivatives were tested on a dopaminergic neuron spontaneous degeneration model in culture according to the protocol described in the article by F. Schmidt et al. […] This model consists of culturing rat embryo ventral midbrain. This part of the brain in culture contains a proportion of dopaminergic neurons of 5% of the total neurons; the other neurons are mainly GABAergic. These cultures are also composed of glial cells, i.e., astrocytes, oligodendrocytes and microglia. These cultures are characterized by progressive neuron death. […] To assess the neuritogenic activity of compounds according to the invention, neurite outgrowth per cell was quantified using the Neurite Outgrowth software developed by Xplora Nova. At least 60 neurons per condition were photographed and studied.

[5] = influence of time before euthanasia, IP route: brain extract and plasma concentration; type: in vivo, C57BL\6J mice; conditions: IP 70 mg/kg
Protocol: as §1
IP Route • Mice treated by IP route received a treatment of 70 mg/kg to […] of a solution of compound 4bc over 2 days comprising 2 IP injections the first day and 1 IP injection the second day.

[6] = IP study in rats: brain extract and plasma concentration; type: in vivo
Protocol: The kinetics in mouse brain and plasma of compound 4bc after IP administration are also shown in FIG. 8. • Another study was done in rats treated by IP. These rats received a treatment of 20 or 45 mg/kg at 10 mL/kg of a solution of compound 4bc over 2 days comprising 2 IP injections the first day and 1 IP injection the second day.

[7] = per os 150 mg/kg, approximately 1 h 30 min
[8] = per os 150 mg/kg, approximately 2 h
[9] = per os 150 mg/kg, approximately 2 h 25 min
[10] = IP 20 mg/kg at 10 mL/kg, approximately 3 h

In the case of `Cc1nc2ccc(N)cc2nc1-c1ccccc1` [Compound 4bc], the activity at 100 µM [1] is reported as 139 ± 11%, the “neuroprotective activity on dopaminergic fibers in vivo (FIGS. 9 and 10)” value ([2]; intranasal MPTP, Mann-Whitney test) is reported as “significant neuroprotective activity” and the “mild toxicity in animals who received only the compound (T/NL)” value ([2]; not lesioned) is reported as “not significant”. The concentration at 1 h ([3]; C57BL\6J, mouse, brain extract, oral, per os 150 mg/kg over 5 days, approximately 1 h after last treatment) was 2200 ng/mL, the “crossing of the blood-brain barrier in vivo” value ([3]; oral administration) was “able to cross the mouse or rat blood-brain barrier” and the Brain extract concentration ([3]; per os 150 mg/kg over 5 days, approximately 1 h after last treatment) was 2.2 µg/mL. The Plasma concentration ([3]; per os 150 mg/kg, approximately 1 h) was 11600 ng/mL, the Brain extract concentration [3, 7] was 0.2 µg/mL and the Plasma concentration [3, 7] was 700 ng/mL. The Brain extract concentration [3, 8] was 0.1 µg/mL, the Plasma concentration [3, 8] was 40 ng/mL and the Brain extract concentration [3, 9] was 0.05 µg/mL. For the same compound, the Plasma concentration [3, 9] was 400 ng/mL, the “TH+ neuron differentiation / neuritogenic effect (in words, FIG. 1)” value ([4]; 100 nM, versus negative control) was “significant increase; also recorded: longer and more numerous neurite extensions” and the activity at 0.1 µM ([4]; Rattus norvegicus, Neuron, compound at 100 nM, read-out: Diff in % of control ± SEM) was 142%. The concentration at 1 h ([5]; C57BL\6J, mouse, brain extract, 3 injections over 2 days, euthanasia approximately 1 h after last treatment) was 1000 ng/mL, the Brain extract concentration ([5]; 3 injections over 2 days, euthanasia approximately 1 h after last treatment) was 1 µg/mL and the Plasma concentration ([5]; approximately 1 h) was 1200 ng/mL. The Brain extract concentration ([5]; approximately 1 h 30 min) was 0.74 µg/mL, the Plasma concentration ([5]; approximately 1 h 30 min) was 3100 ng/mL and the Brain extract concentration ([5]; approximately 1 h 55 min) was 0.1 µg/mL. The Plasma concentration ([5]; approximately 1 h 55 min) was 1700 ng/mL, the Brain extract concentration ([5]; approximately 2 h 20 min) was 0.09 µg/mL and the Brain extract concentration [6, 10] was 0.1 µg/mL. For the same compound, the Plasma concentration [6, 10] was 400 ng/mL and the Brain extract concentration ([6]; IP 45 mg/kg at 10 mL/kg, approximately 1 h) was 5.1 µg/mL.

Reference: patent US9434701B2, “Aminoquinoxaline derivatives for treatment of neurodegenerative diseases” (CENTRE NATIONAL DE LA RECHERCHE SCIENTIFIQUE (CNRS), priority 2011, dated 2016)
